Data: PubChem BioAssay AID330 (DTP/NCI, 2004)
Where “and” joins values, the source holds several entries; their conditions need not be identical. Equal entries are not always repeated. Inconclusive results and toxic doses are left out. The calls were made as follows: active = survival T/C of 150% or more; inactive = T/C below 125% in these data.

Tested on: P388 leukemia ip, CD2F1 mice, survival T/C
Test: NCI In Vivo Anticancer Drug Screen. Data for tumor model P388 Leukemia (intraperitoneal) in CD2F1 (CDF1) mice
Settings: endpoint: median survival time, higher = longer survival
Method in brief: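 Mice carrying the transplanted tumor received test compound or vehicle. Survival was recorded in each group, and the value is the treated-group measurement divided by that of the vehicle-treated control group.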

[1] = dose: 50.0 mg/kg/injection, schedule: Q01DX005 (ip), vehicle: Klucel (hydroxypropylcellulose) (HPC)
[2] = dose: 100.0 mg/kg/injection, schedule: Q01DX005 (ip), vehicle: Klucel (hydroxypropylcellulose) (HPC)
[3] = dose: 200.0 mg/kg/injection, schedule: Q01DX005 (ip), vehicle: Klucel (hydroxypropylcellulose) (HPC)
[4] = dose: 50.0 mg/kg/injection, schedule: Q01DX009 (ip), vehicle: Klucel (hydroxypropylcellulose) (HPC)
[5] = dose: 100.0 mg/kg/injection, schedule: Q01DX009 (ip), vehicle: Klucel (hydroxypropylcellulose) (HPC)
[6] = dose: 60.0 mg/kg/injection, schedule: Q01DX005 (ip), vehicle: saline with Tween-80
[7] = dose: 120.0 mg/kg/injection, schedule: Q01DX005 (ip), vehicle: saline with Tween-80
[8] = dose: 50.0 mg/kg/injection, schedule: Q01DX009 (ip), vehicle: saline with Tween-80
[9] = dose: 100.0 mg/kg/injection, schedule: Q01DX009 (ip), vehicle: saline with Tween-80
[10] = dose: 200.0 mg/kg/injection, schedule: Q01DX009 (ip), vehicle: saline with Tween-80
[11] = dose: 50.0 mg/kg/injection, schedule: Q01DX005 (ip), vehicle: saline with Tween-80
[12] = dose: 100.0 mg/kg/injection, schedule: Q01DX005 (ip), vehicle: saline with Tween-80
[13] = dose: 200.0 mg/kg/injection, schedule: Q01DX005 (ip), vehicle: saline with Tween-80
[14] = dose: 100.0 mg/kg/injection, schedule: Q01DX001 (ip), vehicle: saline with Tween-80
[15] = dose: 100.0 mg/kg/injection, schedule: Q01DX009 (ip), vehicle: saline
[16] = dose: 200.0 mg/kg/injection, schedule: Q01DX009 (ip), vehicle: saline
[17] = dose: 60.0 mg/kg/injection, schedule: Q01DX005 (ip), vehicle: saline
[18] = dose: 120.0 mg/kg/injection, schedule: Q01DX005 (ip), vehicle: saline
[19] = dose: 240.0 mg/kg/injection, schedule: Q01DX005 (ip), vehicle: saline
[20] = dose: 50.0 mg/kg/injection, schedule: Q01DX009 (ip), vehicle: saline
[21] = dose: 400.0 mg/kg/injection, schedule: Q01DX009 (ip), vehicle: saline with Tween-80

Measured: T/C

NC(CCl)=NC1CCCCC1
inactive: dose: 10.0 mg/kg/injection, schedule: Q04DX003 (ip), vehicle: saline 109 % of control | dose: 15.0 mg/kg/injection, schedule: Q04DX003 (ip), vehicle: saline 107 % of control | dose: 22.0 mg/kg/injection, schedule: Q04DX003 (ip), vehicle: saline 111 % of control | dose: 33.0 mg/kg/injection, schedule: Q04DX003 (ip), vehicle: saline 116 % of control

O=S(=O)(OCCCl)c1cc(Cl)c(Cl)cc1Cl
inactive: [1] 105 % of control | [2] 114 % of control | [3] 90 % of control

CC(C)Oc1ccc(C(=O)NS(=O)(=O)c2ccc(N=Nc3c(O)n(-c4ccccc4)n(-c4ccccc4)c3=O)cc2)cc1
inactive: [4] 94 % of control | [5] 91 % of control | dose: 200.0 mg/kg/injection, schedule: Q01DX009 (ip), vehicle: Klucel (hydroxypropylcellulose) (HPC) 93 % of control

CCOC(=O)N1CCN(c2cc(C)nc3cc(OC)ccc23)CC1
inactive: [6] 88 % of control | [7] 94 % of control

COC(=O)c1cc(/C=C/c2ccccc2)[nH]c(=O)c1C#N
inactive: [6] 106 % of control | [7] 105 % of control | dose: 240.0 mg/kg/injection, schedule: Q01DX005 (ip), vehicle: saline with Tween-80 98 % of control

O=C1c2ccccc2C(O)(C#Cc2ccccc2)c2cc(Cl)ccc21 (stereo unspecified)
inactive: [8] 106 % of control | [9] 102 % of control | [10] 90 % of control

COc1ccc2nc(N)sc2c1
inactive: dose: 12.5 mg/kg/injection, schedule: Q01DX009 (ip), vehicle: Klucel (hydroxypropylcellulose) (HPC) 97 % of control | dose: 12.5 mg/kg/injection, schedule: Q01DX009 (ip), vehicle: saline with Tween-80 111 % of control | dose: 25.0 mg/kg/injection, schedule: Q01DX009 (ip), vehicle: Klucel (hydroxypropylcellulose) (HPC) 99 % of control | dose: 25.0 mg/kg/injection, schedule: Q01DX009 (ip), vehicle: saline with Tween-80 111 % of control | [4] 107 % of control | [8] 120 % of control | [5] 107 % of control

Nc1nc(N)c2ncn(-c3ccc(Cl)c(Cl)c3)c2n1
inactive: [11] 101 % of control | [12] 97 % of control | [13] 106 % of control

Cc1cc2ncc(-c3ccccc3)nc2cc1C
inactive: dose: 25.0 mg/kg/injection, schedule: Q01DX001 (ip), vehicle: saline with Tween-80 100 % of control | dose: 50.0 mg/kg/injection, schedule: Q01DX001 (ip), vehicle: saline with Tween-80 100 % of control | [14] 89 % of control and 90 % of control

Cc1cc2cc(N)ccc2[se]1
inactive: dose: 50.0 mg/kg/injection, schedule: Q01DX009 (ip), vehicle: suspension in saline 98 % of control | [15] 94 % of control | dose: 100.0 mg/kg/injection, schedule: Q01DX009 (ip), vehicle: suspension in saline 108 % of control | [16] 89 % of control | dose: 200.0 mg/kg/injection, schedule: Q01DX009 (ip), vehicle: suspension in saline 101 % of control

CC(CN1c2ccccc2Sc2ccccc21)N(C)C (stereo unspecified)
inactive: dose: 25.0 mg/kg/injection, schedule: Q01DX001 (ip), vehicle: saline 99 % of control | dose: 50.0 mg/kg/injection, schedule: Q01DX001 (ip), vehicle: saline 101 % of control | dose: 100.0 mg/kg/injection, schedule: Q01DX001 (ip), vehicle: saline 95 % of control

N=c1c2c(ncn1CCc1ccccc1)CCN(Cc1ccccc1)C2
inactive: dose: 20.0 mg/kg/injection, schedule: Q01DX009 (ip), vehicle: saline with Tween-80 91 % of control | dose: 40.0 mg/kg/injection, schedule: Q01DX009 (ip), vehicle: saline with Tween-80 94 % of control

CCOC1C(=O)C=COC1C(C)C (stereo unspecified)
inactive: [17] 108 % of control | [18] 104 % of control | [19] 110 % of control

C1COCCN2CCOCCOCCN(CCO1)CCOCC2
inactive: [20] 109 % of control | [15] 106 % of control | [16] 107 % of control

CCCCCCCCCCCCCCCCNc1cccc2ccccc12
inactive: dose: 100.0 mg/kg/injection, schedule: Q01DX009 (ip), vehicle: saline sonified 95 % of control | [9] 100 % of control | dose: 100.0 mg/kg/injection, schedule: Q04DX003 (ip), vehicle: saline with Tween-80 95 % of control | dose: 200.0 mg/kg/injection, schedule: Q01DX009 (ip), vehicle: saline sonified 105 % of control | [10] 90 % of control | dose: 200.0 mg/kg/injection, schedule: Q04DX003 (ip), vehicle: saline with Tween-80 86 % of control | dose: 400.0 mg/kg/injection, schedule: Q01DX009 (ip), vehicle: saline sonified 95 % of control | [21] 90 % of control | dose: 400.0 mg/kg/injection, schedule: Q04DX003 (ip), vehicle: saline with Tween-80 95 % of control

CC(NC(=O)OC(C)(C)C)C(=O)NC(C)C(=O)OCc1ccccc1 (stereo unspecified)
inactive: [11] 99 % of control | [12] 89 % of control and 105 % of control | [13] 92 % of control

CCN(CC)c1ccc(N=Nc2ccc(Br)cn2)c(O)c1
inactive: dose: 60.0 mg/kg/injection, schedule: Q01DX005 (ip), vehicle: Klucel + Tween-80 104 % of control | dose: 120.0 mg/kg/injection, schedule: Q01DX005 (ip), vehicle: Klucel + Tween-80 95 % of control | dose: 240.0 mg/kg/injection, schedule: Q01DX005 (ip), vehicle: Klucel + Tween-80 92 % of control

S=C(S)n1nc(-c2ccccc2)c(N=Nc2cccc(Cl)c2)c1-c1ccccc1
inactive: [14] 91 % of control | dose: 200.0 mg/kg/injection, schedule: Q01DX001 (ip), vehicle: saline with Tween-80 91 % of control | dose: 400.0 mg/kg/injection, schedule: Q01DX001 (ip), vehicle: saline with Tween-80 113 % of control

CNC(=O)c1nn(-c2ccccc2)c2oc(=O)cc(C)c12
inactive: [1] 95 % of control | [2] 87 % of control | [3] 87 % of control

O=C1c2ccccc2-c2nsc3c(C(Br)Br)ccc1c23
inactive: [1] 99 % of control | [2] 87 % of control | [3] 91 % of control

CC1(C)CC(=O)CC(C(Cl)(Cl)Cl)O1 (stereo unspecified)
inactive: [11] 99 % of control | [12] 100 % of control | [13] 98 % of control

C=C1C(=O)OC2/C=C(\C)CC/C=C(/C=O)C(OC(=O)C(C)C)C(O)C12 (stereo unspecified)
inactive: dose: 8.0 mg/kg/injection, schedule: Q01DX009 (ip), vehicle: saline + alcohol 97 % of control

O=C(NCCCl)Oc1ccc(F)cc1
inactive: [1] 100 % of control | [2] 100 % of control | [3] 110 % of control

N=Cc1c(O)n(C2CCCCC2)c(=O)[nH]c1=O
inactive: [9] 90 % of control | [21] 95 % of control

C[Si](C)(C)CNC(=O)OCc1ccccc1
inactive: [17] 97 % of control | [18] 95 % of control | [19] 95 % of control

COc1cc2c(cc1OC)C(C#N)C2 (stereo unspecified)
inactive: dose: 0.78 mg/kg/injection, schedule: Q01DX009 (ip), vehicle: saline with Tween-80 100 % of control | dose: 1.56 mg/kg/injection, schedule: Q01DX009 (ip), vehicle: saline with Tween-80 97 % of control | dose: 3.12 mg/kg/injection, schedule: Q01DX009 (ip), vehicle: saline with Tween-80 102 % of control | dose: 6.25 mg/kg/injection, schedule: Q01DX009 (ip), vehicle: saline with Tween-80 102 % of control

CCCCC(CCCCCC(CCCC)C1NC(C)Cc2cc(OC)c(OC)cc21)C1NC(C)Cc2cc(OC)c(OC)cc21 (stereo unspecified)
inactive: dose: 6.25 mg/kg/injection, schedule: Q01DX005 (ip), vehicle: saline 99 % of control | dose: 12.5 mg/kg/injection, schedule: Q01DX005 (ip), vehicle: saline 105 % of control | dose: 25.0 mg/kg/injection, schedule: Q01DX005 (ip), vehicle: saline 90 % of control

NC(=O)c1ccc(NO)cc1
inactive: [20] 106 % of control | [15] 98 % of control | [16] 94 % of control

c1ncc2n[pH]nc2n1 (stereo unspecified)
inactive: [17] 95 % of control | [18] 101 % of control | [19] 96 % of control
